#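 How tested: cells in 96-well plates exposed to compound for 48 hours at five concentrations. The concentration for full growth arrest is given as TGI.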
# Key:
# Experiment in all cases: DTP human tumour cell line panel, 48 h
# UACC-62 melanoma = tested on: UACC-62 melanoma
# LOX IMVI melanoma = tested on: LOX IMVI melanoma
# HS 578T breast = tested on: HS 578T breast
# ACHN renal = tested on: ACHN renal
# RXF 393 renal = tested on: RXF 393 renal
# COLO 205 colon = tested on: COLO 205 colon
# RPMI-8226 leukemia = tested on: RPMI-8226 leukemia
# U251 CNS = tested on: U251 CNS
# 786-0 renal = tested on: 786-0 renal
# NCI-H23 lung = tested on: NCI-H23 lung
# SNB-19 CNS = tested on: SNB-19 CNS
# MDA-N = tested on: MDA-N
# HOP-62 NSCLC = tested on: HOP-62 NSCLC
# DU-145 prostate = tested on: DU-145 prostate
# SF-268 CNS = tested on: SF-268 CNS
# SK-MEL-5 melanoma = tested on: SK-MEL-5 melanoma
# M14 melanoma = tested on: M14 melanoma
# MDA-MB-231 breast = tested on: MDA-MB-231 breast
# OVCAR-3 ovarian = tested on: OVCAR-3 ovarian
# HCC-2998 colon = tested on: HCC-2998 colon
# HOP-92 NSCLC = tested on: HOP-92 NSCLC
# MDA-MB-435 = tested on: MDA-MB-435
# T-47D breast = tested on: T-47D breast
# UACC-257 melanoma = tested on: UACC-257 melanoma
# HCT-116 colon = tested on: HCT-116 colon
# HT29 colon = tested on: HT29 colon
# SF-295 CNS = tested on: SF-295 CNS
# IGROV1 ovarian = tested on: IGROV1 ovarian
# MALME-3M melanoma = tested on: MALME-3M melanoma
# A498 renal = tested on: A498 renal
# MOLT-4 leukemia = tested on: MOLT-4 leukemia
# SN12C renal = tested on: SN12C renal
# OVCAR-8 ovarian = tested on: OVCAR-8 ovarian
# NCI/ADR-RES ovarian = tested on: NCI/ADR-RES ovarian
# SR leukemia = tested on: SR leukemia
# EKVX NSCLC = tested on: EKVX NSCLC
# PC-3 prostate = tested on: PC-3 prostate
# OVCAR-5 ovarian = tested on: OVCAR-5 ovarian
# SK-MEL-28 melanoma = tested on: SK-MEL-28 melanoma
# A549 NSCLC = tested on: A549 NSCLC
# SK-OV-3 ovarian = tested on: SK-OV-3 ovarian
# KM12 colon = tested on: KM12 colon
# NCI-H522 lung = tested on: NCI-H522 lung
# HCT-15 colon = tested on: HCT-15 colon
# HL-60(TB) leukemia = tested on: HL-60(TB) leukemia
# TK-10 renal = tested on: TK-10 renal
# SK-MEL-2 melanoma = tested on: SK-MEL-2 melanoma
# SW-620 colon = tested on: SW-620 colon
# SNB-75 CNS = tested on: SNB-75 CNS
# NCI-H460 lung = tested on: NCI-H460 lung
# NCI-H226 lung = tested on: NCI-H226 lung
# BT-549 breast = tested on: BT-549 breast
# MCF7 breast = tested on: MCF7 breast
# CAKI-1 renal = tested on: CAKI-1 renal
# CCRF-CEM leukemia = tested on: CCRF-CEM leukemia
# SF-539 CNS = tested on: SF-539 CNS
# OVCAR-4 ovarian = tested on: OVCAR-4 ovarian
smiles,measurement,setting,value
CCN(CC)CCn1c2cc3c(cc2c(=O)c2cccnc21)OCO3,TGI,UACC-62 melanoma,> 10 µM
same,TGI,LOX IMVI melanoma,> 10 µM
same,TGI,HS 578T breast,> 10 µM
same,TGI,ACHN renal,> 10 µM
same,TGI,RXF 393 renal,> 10 µM
same,TGI,COLO 205 colon,> 10 µM
same,TGI,RPMI-8226 leukemia,> 10 µM
same,TGI,U251 CNS,> 10 µM
same,TGI,786-0 renal,> 10 µM
same,TGI,NCI-H23 lung,> 10 µM
same,TGI,SNB-19 CNS,> 10 µM
same,TGI,MDA-N,> 10 µM
same,TGI,HOP-62 NSCLC,> 10 µM
same,TGI,DU-145 prostate,> 10 µM
same,TGI,SF-268 CNS,> 10 µM
same,TGI,SK-MEL-5 melanoma,> 10 µM
same,TGI,M14 melanoma,> 10 µM
same,TGI,MDA-MB-231 breast,> 10 µM
same,TGI,OVCAR-3 ovarian,> 10 µM
same,TGI,HCC-2998 colon,> 10 µM
same,TGI,HOP-92 NSCLC,> 10 µM
same,TGI,MDA-MB-435,> 10 µM
same,TGI,T-47D breast,> 10 µM
same,TGI,UACC-257 melanoma,> 10 µM
same,TGI,HCT-116 colon,> 10 µM
same,TGI,HT29 colon,> 10 µM
same,TGI,SF-295 CNS,> 10 µM
same,TGI,IGROV1 ovarian,> 10 µM
same,TGI,MALME-3M melanoma,> 10 µM
same,TGI,A498 renal,> 10 µM
same,TGI,MOLT-4 leukemia,> 10 µM
same,TGI,SN12C renal,> 10 µM
same,TGI,OVCAR-8 ovarian,> 10 µM
same,TGI,NCI/ADR-RES ovarian,> 10 µM
same,TGI,SR leukemia,> 10 µM
same,TGI,EKVX NSCLC,> 10 µM
same,TGI,PC-3 prostate,> 10 µM
same,TGI,OVCAR-5 ovarian,> 10 µM
same,TGI,SK-MEL-28 melanoma,> 10 µM
same,TGI,A549 NSCLC,> 10 µM
same,TGI,SK-OV-3 ovarian,> 10 µM
same,TGI,KM12 colon,> 10 µM
same,TGI,NCI-H522 lung,> 10 µM
same,TGI,HCT-15 colon,> 10 µM
same,TGI,HL-60(TB) leukemia,> 10 µM
same,TGI,TK-10 renal,> 10 µM
same,TGI,SK-MEL-2 melanoma,> 10 µM
same,TGI,SW-620 colon,> 10 µM
same,TGI,SNB-75 CNS,> 10 µM
same,TGI,NCI-H460 lung,7.79 µM
same,TGI,NCI-H226 lung,> 10 µM
same,TGI,BT-549 breast,> 10 µM
same,TGI,MCF7 breast,> 10 µM
same,TGI,CAKI-1 renal,> 10 µM
same,TGI,CCRF-CEM leukemia,> 10 µM
same,TGI,SF-539 CNS,> 10 µM
same,TGI,OVCAR-4 ovarian,> 10 µM

# From PubChem BioAssay (NCI)
